The source of these data is PMC4710668, “Bioactivation of food genotoxicants 5-hydroxymethylfurfural and furfuryl alcohol by sulfotransferases from human, mouse and rat: a comparative study” (Archives of Toxicology, 2014).

Holding throughout (assay): HMF sulfoconjugation assay
Common to all, as to type: biochemical

One test addresses T1, hSULT2A1 (Homo sapiens, UniProt Q06520).
T1 construct: made in house; host or cells: Salmonella typhimurium TA1538 (cytosolic fraction, not purified)
T1 sequence (Q06520 1-285): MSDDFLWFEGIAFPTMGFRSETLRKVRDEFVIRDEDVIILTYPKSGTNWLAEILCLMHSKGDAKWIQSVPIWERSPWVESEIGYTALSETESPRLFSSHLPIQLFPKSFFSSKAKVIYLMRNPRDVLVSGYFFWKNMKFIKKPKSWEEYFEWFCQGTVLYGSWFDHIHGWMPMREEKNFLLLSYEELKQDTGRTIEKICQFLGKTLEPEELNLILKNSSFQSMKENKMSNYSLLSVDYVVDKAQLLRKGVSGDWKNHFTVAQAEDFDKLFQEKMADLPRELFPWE
Here is the method: (§1) Cytosolic fractions containing individual SULT forms were prepared from transgenic S. typhimurium TA1538. Table S1 in the Supplementary Material provides a summary of the thirty SULTs used in the current study together with references describing the cloning of the respective S. typhimurium TA1538 strains. The expressed SULT forms are denoted with the prefixes h, m and r for human, mouse and rat enzymes, respectively. Bacteria were grown in Luria Broth medium containing ampicillin (100 µg/ml) by stirring for 8 h at 200 revolutions/min at 37 °C. The bacterial suspensions were centrifuged at 5,000 g for 10 min. The sediments were washed twice with 25 ml of 10 mM potassium phosphate buffer (pH 7.4)/50 mM potassium chloride (KCP buffer) and centrifuged again. The pellets were taken up in 800 µl KCP buffer and sonicated thrice for 15 s with 30 s pauses in between. The soluble fraction was attained by centrifuging for 1 h at 100,000 g. The supernatants (in the following termed cytosolic preparations) were frozen at −80 °C. The protein concentrations were determined according to a bicinchoninic acid (BCA) assay protocol. The SULT concentrations in the cytosolic preparations were estimated after electrophoretic separation and immunodetection using inclusion bodies of different SULT forms as standards (Teubner et al. [2007]). The preparation of SULT inclusion bodies and the immunodetection of SULTs is described in the Supplementary Material, which also contains a representative immunoblot of different amounts of rSult1a1standard and a cytosolic preparation of S. typhimurium expressing rSult1a1 (Fig. S1).
(§2) The reactions were conducted in mixtures of 100 µl containing 25–200 µg protein, 50 mM potassium phosphate buffer (pH 7.4), 5 mM MgCl2, 50 µM PAPS and different concentrations of HMF at 37 °C. Preliminary experiments ensured that measurements were recorded under ‘linear’ conditions, i.e., doubling of protein concentration or incubation time was doubling the amount of sulfate ester formed. The reactions were stopped after 30 min by adding 300 µl ice-cold 2-propanol, mixed and centrifuged at 15,000 g for 10 min.
(§3) SMF concentrations of the clear supernatants were analyzed by UPLC-MS/MS. The protocol was adapted from the quantification of SMF in plasma samples of HMF-treated mice (Monien et al. [2009]). In short, the supernatants were analyzed using a UPLC system (Waters) connected to a Quattro Premier XE tandem quadrupole mass spectrometer (Waters) using the negative electrospray ionization mode. Samples of 4 µl were injected into a HSS T3 column (1.8 µm, 2.1 × 100 mm; Waters) and eluted with an isocratic flow of 0.35 ml/min 10 mM ammonium acetate/methanol (95:5). The fragmentation reactions of SMF yielding two principal ions, the sulfate ion radical (m/z = 204.9 → 96.0) and the protonated sulfonate ion (m/z = 204.9 → 81.0) were monitored. The tune parameters were as follows: temperature of the electrospray source 120 °C; desolvation temperature 475 °C; desolvation gas nitrogen (800 l/h); cone gas nitrogen (100 l/h); collision gas argon (indicated cell pressure ~5 × 10^−3 mbar). For the fragmentation of SMF, collision energies were 20 and 23 eV for the transitions m/z = 204.9 → 81.0 and m/z = 204.9 → 96.0, respectively. The dwell time was set to 100 ms, and capillary voltage was set to 0.35 kV. The cone and RF1 lens voltages were 32 and 0.2 V, respectively. SMF was quantified using an external calibration line that was linear in the concentration range of 1.0 nM (4 fmol/injection) to 2,500 (10 pmol/injection) SMF (r ^2 ≥ 0.99). Data acquisition and handling were performed with MassLynx 4.1 software (Waters). The limit of detection (LOD) for this technique of 2.5 nM SMF has been reported (Monien et al. [2009]). In the current study, this corresponds to 10 fmol SMF per injection or a reaction rate of 0.5 pmol SMF/mg/min.

In a further test the target is T2, hSULT2B1a (Homo sapiens, UniProt O00204).
T2 construct: made in house; host or cells: Salmonella typhimurium TA1538 (cytosolic fraction, not purified)
T2 sequence (O00204 1-350 isoform O00204-2): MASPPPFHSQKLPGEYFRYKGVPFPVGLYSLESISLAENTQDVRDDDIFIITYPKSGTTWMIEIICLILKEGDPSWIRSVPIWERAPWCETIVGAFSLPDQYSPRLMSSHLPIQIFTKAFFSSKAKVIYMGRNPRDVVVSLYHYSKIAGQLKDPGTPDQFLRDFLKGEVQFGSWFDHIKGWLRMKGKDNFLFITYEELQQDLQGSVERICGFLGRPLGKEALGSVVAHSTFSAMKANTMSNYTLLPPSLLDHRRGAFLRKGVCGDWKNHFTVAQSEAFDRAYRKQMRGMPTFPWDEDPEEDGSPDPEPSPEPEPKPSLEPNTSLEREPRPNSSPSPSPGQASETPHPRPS
Here is the method: as §1, §2, §3

The next test has as its target T3, rSult1c1 (Rattus norvegicus, UniProt P50237).
T3 construct: made in house; host or cells: Salmonella typhimurium TA1538 (cytosolic fraction, enzyme not purified)
Here is the method:
as §1, §2, §3

For the next test, the target named is T4, rSult2b1 (Rattus norvegicus, UniProt Q29YR5).
T4 construct: made in house; host or cells: Salmonella typhimurium TA1538 (cytosolic fraction, enzyme not purified)
T4 sequence (Q29YR5 1-340): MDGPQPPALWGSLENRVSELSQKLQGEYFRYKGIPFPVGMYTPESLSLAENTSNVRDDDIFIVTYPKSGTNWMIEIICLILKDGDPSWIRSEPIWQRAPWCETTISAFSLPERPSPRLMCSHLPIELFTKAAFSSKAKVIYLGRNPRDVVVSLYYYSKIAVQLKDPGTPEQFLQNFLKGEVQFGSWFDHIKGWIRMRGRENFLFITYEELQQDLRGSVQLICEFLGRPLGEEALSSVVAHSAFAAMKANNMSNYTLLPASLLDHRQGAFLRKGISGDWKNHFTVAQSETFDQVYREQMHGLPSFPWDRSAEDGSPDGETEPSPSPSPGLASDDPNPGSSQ
Here is the method:
as §1, §2, §3

T3 sequence (P50237 whole entry): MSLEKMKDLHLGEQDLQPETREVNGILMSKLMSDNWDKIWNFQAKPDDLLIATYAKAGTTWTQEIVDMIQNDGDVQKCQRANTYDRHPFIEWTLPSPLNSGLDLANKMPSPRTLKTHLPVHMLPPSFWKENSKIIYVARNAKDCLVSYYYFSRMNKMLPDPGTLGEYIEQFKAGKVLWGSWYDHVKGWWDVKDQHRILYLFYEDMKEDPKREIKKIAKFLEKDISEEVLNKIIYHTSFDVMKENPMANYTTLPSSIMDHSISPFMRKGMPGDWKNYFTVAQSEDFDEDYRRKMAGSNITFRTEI

Consider `O=Cc1ccc(CO)o1` [HMF, 5-Hydroxymethylfurfural], for which the Rate of sulfoconjugation at hSULT2A1 (0.1 mM HMF) was below 0.5 pmol/mg/min; on hSULT2A1 (1 mM HMF), 2.4 ± 0.6 pmol/mg/min; at hSULT2A1 (10 mM HMF) it was 31.1 ± 5.4 pmol/mg/min; on hSULT2A1 (100 mM HMF), 201 ± 39 pmol/mg/min; on hSULT2B1a (0.1 mM HMF), below 0.5 pmol/mg/min; at hSULT2B1a (1 mM HMF), below 0.5 pmol/mg/min. The Rate of sulfoconjugation is listed as below 0.5 pmol/mg/min on hSULT2B1a (10 mM HMF); below 0.5 pmol/mg/min at hSULT2B1a (100 mM HMF); 2.1 ± 1.3 pmol/mg/min at rSult1c1 (0.1 mM HMF); 29.1 ± 9.0 pmol/mg/min on rSult1c1 (1 mM HMF); 120 ± 39 pmol/mg/min on rSult1c1 (10 mM HMF); 47.5 ± 27.3 pmol/mg/min on rSult1c1 (100 mM HMF). The Rate of sulfoconjugation on rSult2b1 (0.1 mM HMF), on rSult2b1 (1 mM HMF), at rSult2b1 (10 mM HMF) and on rSult2b1 (100 mM HMF) was below 0.5 pmol/mg/min in each case. Also, the “K M” value on rSult1c1 (HMF sulfoconjugation, extended Michaelis-Menten equation with substrate inhibition) amounted to 18.4 ± 4.7 mM.
